Data reported in PubChem BioAssay (NCI).
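In this assay, cells in 96-well plates receive the compound at five concentrations for 48 hours. Endpoints are linearly interpolated between the surrounding concentrations. TGI: concentration producing complete growth inhibition.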

Assays:
Assay in all cases: NCI tumour cell line growth inhibition, 48 h
[1] = test system: LXFL 529 NSCLC
[2] = test system: SNB-75 CNS
[3] = test system: NCI-H23 lung
[4] = test system: DMS 273 small cell lung
[5] = test system: DMS 114 small cell lung
[6] = test system: OVCAR-8 ovarian
[7] = test system: SR leukemia
[8] = test system: HCT-116 colon
[9] = test system: UACC-62 melanoma
[10] = test system: RXF-631 renal
[11] = test system: KM12 colon
[12] = test system: DLD-1 colon
[13] = test system: OVCAR-4 ovarian
[14] = test system: SK-MEL-2 melanoma
[15] = test system: NCI-H522 lung
[16] = test system: LOX IMVI melanoma
[17] = test system: ACHN renal
[18] = test system: CAKI-1 renal
[19] = test system: NCI-H226 lung
[20] = test system: COLO 205 colon
[21] = test system: SK-MEL-5 melanoma
[22] = test system: HOP-92 NSCLC
[23] = test system: SK-OV-3 ovarian
[24] = test system: A549 NSCLC
[25] = test system: MOLT-4 leukemia
[26] = test system: UO-31 renal
[27] = test system: KM20L2 colon
[28] = test system: CCRF-CEM leukemia
[29] = test system: IGROV1 ovarian
[30] = test system: U251 CNS
[31] = test system: EKVX NSCLC
[32] = test system: M14 melanoma
[33] = test system: RPMI-8226 leukemia
[34] = test system: SNB-78 CNS
[35] = test system: HOP-18 NSCLC
[36] = test system: HL-60(TB) leukemia
[37] = test system: 786-0 renal
[38] = test system: SN12C renal
[39] = test system: OVCAR-3 ovarian
[40] = test system: SK-MEL-28 melanoma
[41] = test system: OVCAR-5 ovarian
[42] = test system: SW-620 colon
[43] = test system: SF-268 CNS
[44] = test system: RXF 393 renal
[45] = test system: TK-10 renal
[46] = test system: XF 498 CNS
[47] = test system: K-562 leukemia
[48] = test system: UACC-257 melanoma
[49] = test system: A498 renal
[50] = test system: HCT-15 colon
[51] = test system: M19-MEL melanoma
[52] = test system: HOP-62 NSCLC
[53] = test system: SF-539 CNS
[54] = test system: SNB-19 CNS
[55] = test system: NCI-H460 lung
[56] = test system: HT29 colon
[57] = test system: MALME-3M melanoma
[58] = test system: SF-295 CNS

Measured: TGI

CC1(C)COC2(OC1)C1=NS(=O)(=O)CC13CCC2C3(C)C (stereo not drawn)
> 100 µM: all assays above
